{
  "source": "patent US20230045199A1",
  "about": "“COMPOSITIONS AND METHODS FOR HEMOGLOBIN PRODUCTION” (THE CHILDREN'S HOSPITAL OF PHILADELPHIA, priority 2019, published 2023)",
  "tested_on": "PP6C",
  "assay": "Western blot of PP6C and gamma-globin in primary human cells after RNP electroporation of SpCas9 with guide RNA",
  "type": "cell-based",
  "source_text": "FIGS. 2A-2D provide data regarding validation of PP6C as a regulator of HbF in human primary cells utilizing RNP-based electroporation of SpCas9 with guide RNA targeting PP6C. FIG. 2A depicts protein levels by Western blot of PP6C and gamma-globin with 6 independent guide RNA targeting PP6C or a non-targeting guide RNA. […] These specific guide RNAs were utilized for further primary human cell testing. FIG. 2B provides a graph of gamma globin mRNA levels in four independent biological replicates of human primary cells treated with PP6C sgRNA #1 or #3; a guide RNA targeting the BCL11A +58 enhancer (positive control), or a non-targeting guide RNA (negative control). FIG. 2C provides representative flow cytometric plots of HbF staining (top) and compiled F-cell flow cytometric staining in four independent biological replicates (bottom) in cells treated with PP6C sgRNA, BCL11A +58 sgRNA, or non-targeting sgRNA. […] FIG. 2D are representative cation-exchange high performance liquid chromatography (HPLC) tracings (top) and complied HPLC HbF+ quantitation in two independent biological replicates (bottom) in cells treated with PP6C sgRNA, BCL11A +58 sgRNA, or non-targeting sgRNA. HbF elutes as a distinct peak (grey box), followed by adult hemoglobin (HbA). Percentages are quantified as HbF percentage of total globins (HbF+HbA).\nCells were transduced with one of the six guide RNAs targeting PP6C, a guide RNA targeting BCL11A exon 2 (positive control; BCL11A is a repressor of HbF expression), or non-targeting guide RNA or untreated control (negative controls).",
  "note": "Where two headings read alike, the source gives them in different places.",
  "data": [
    {"substance": "PP6C sgRNA1: CRISPR sgRNA targeting PP6C, sequence GCACATCAACTAGTGCACGA (SEQ ID NO: 5) (listed as DNA, chemistry not given here)", "values": [
      {"measurement": "PP6C protein level", "result": "significantly depleted"},
      {"measurement": "gamma-globin protein levels", "result": "significantly increased"},
      {"measurement": "gamma-globin protein levels", "setting": "listed as PP6C guide RNA #1", "result": "significant induction"}
    ]},
    {"substance": "PP6C sgRNA4: CRISPR sgRNA targeting PP6C, sequence TCCTCGGGGACTGATAGCCC (SEQ ID NO: 8) (listed as DNA, chemistry not given here)", "values": [
      {"measurement": "PP6C protein level", "result": "significantly depleted"},
      {"measurement": "gamma-globin protein levels", "result": "significant induction"}
    ]},
    {"substance": "PP6C sgRNA3: CRISPR sgRNA targeting PP6C, sequence GGAACTGCCCGGAATAACTT (SEQ ID NO: 7) (listed as DNA, chemistry not given here)", "values": [
      {"measurement": "PP6C protein level", "result": "significantly depleted"},
      {"measurement": "gamma-globin protein levels", "result": "significantly increased"},
      {"measurement": "gamma-globin protein levels", "setting": "listed as PP6C guide RNA #3", "result": "significant induction"}
    ]}
  ]
}
